Among the data in PubChem BioAssay (NCI) are GI50 and TGI values, retold here.

“And” between values parts separate entries of the source, which are not always exact repeats. Identical values can stand only once.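 Each compound was tested at five concentrations against cells in 96-well plates for 48 hours. GI50 marks 50% less growth. The concentration for full growth arrest is given as TGI.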 A value given as a limit tells only on which side of the number the result lay.

The first assay concerns HCT-15 colon. As to the kind of experiment: growth of human tumour cells (NCI), 48 h.
Turning to `CCOC(=O)[C@]1(OC(C)=O)C[C@H](OC(C)=O)[C@@H](C(F)COP(=O)(OCc2ccccc2)OCc2ccccc2)O1` (stereo not given in full), the GI50 is 33.1 µM and > 100 µM; the TGI is more than 100 µM.

Take `O=C(O)c1ccccc1[Se][Se]c1ccccc1C(=O)O`: the TGI was more than 100 µM.

Regarding `CC[C@@]1(O)C[C@H](OC2CC(N(C)C)C(O)C(C)O2)c2c(O)c3c(c(O)c2[C@H]1OC1CC(N(C)C)C(O)C(C)O1)C(=O)c1cccc(O)c1C3=O` (stereo not given in full), the GI50 was 0.0238 µM; the TGI was 0.971 µM and 1.29 µM.

For the compound `Cc1ccc(N=Nc2ccc(N(CCC#N)CCC#N)cc2C)c(Br)c1`, the TGI is more than 100 µM.

On to `CC(C)CCC[C@@H](C)[C@H]1CC[C@H]2[C@@H]3CC=C4C[C@@H](C(C(=O)O)C(=O)O)CC[C@]4(C)[C@H]3CC[C@]12C`, for which the GI50 is 0.148 µM and the TGI was determined as 0.612 µM.

Compound `CC(C)C/C(CC(=O)CCC(=O)Nc1ccccc1[N+](=O)[O-])=N\NC(=O)c1cc2ccccc2cc1O` displayed a TGI of more than 100 µM.

Take `Nc1ccccc1SC(C[N+](=O)[O-])c1ccc2c(c1)OCO2` (stereo not given): the TGI was 10.3 µM.

Regarding `COC1=CC(c2ccc[nH]2)=N/C1=C\c1[nH]c(C)c(C(=O)OC(C)C)c1C`, the GI50 is 0.026 µM and the TGI worked out at 1.14 µM.

`CC/C=C\CCC/C=C1/C(=O)C=C[C@@H]1C/C=C\CCCC(=O)OC`: the GI50 was 2.1 µM and the TGI was 5.13 µM.

For the compound `COC1=CC(=O)c2nc(-c3ccncc3)[nH]c2C1=O`, the GI50 was more than 100 µM and the TGI is more than 100 µM.

Compound `Cn1cnc([N+](=O)[O-])c1Sc1nnc(-c2cccnc2)n1C` showed a TGI of 36.2 µM.

Consider `NC(=O)c1cccc2cn(-c3ccc([C@@H]4CCCNC4)cc3)nc12`, for which the GI50 was 14.8 µM and the TGI was determined as 45.5 µM.

`CCOc1ccc(NC(=O)C(=O)CC(=O)c2c[n+](=O)c3cc(C)c(C)cc3n2[O-])cc1` had a TGI of more than 100 µM.

`CN1C(=O)C(C)(C)C2(SC(C)(C)C2(C)C)N(C)C1=S` (stereo not given) yielded a TGI of more than 100 µM.

A further assay relates to HL-60(TB) leukemia. As to the kind of experiment: growth of human tumour cells (NCI), 48 h.
Take `CCOC(=O)[C@]1(OC(C)=O)C[C@H](OC(C)=O)[C@@H](C(F)COP(=O)(OCc2ccccc2)OCc2ccccc2)O1` (stereo not given in full): the GI50 is 31.9 µM and > 100 µM; the TGI is 86.6 µM and > 100 µM.

`O=C(O)c1ccccc1[Se][Se]c1ccccc1C(=O)O` had a TGI of more than 100 µM.

Turning to `CC[C@@]1(O)C[C@H](OC2CC(N(C)C)C(O)C(C)O2)c2c(O)c3c(c(O)c2[C@H]1OC1CC(N(C)C)C(O)C(C)O1)C(=O)c1cccc(O)c1C3=O` (stereo not given in full), the GI50 is 0.0102 µM.

`Cc1ccc(N=Nc2ccc(N(CCC#N)CCC#N)cc2C)c(Br)c1` gave a TGI of 65.7 µM.

On to `CC(C)CCC[C@@H](C)[C@H]1CC[C@H]2[C@@H]3CC=C4C[C@@H](C(C(=O)O)C(=O)O)CC[C@]4(C)[C@H]3CC[C@]12C`, for which the GI50 was 0.252 µM and the TGI stood at 1.48 µM.

Consider `CC(C)C/C(CC(=O)CCC(=O)Nc1ccccc1[N+](=O)[O-])=N\NC(=O)c1cc2ccccc2cc1O`, for which the TGI stood at 88.7 µM.

Turning to `Nc1ccccc1SC(C[N+](=O)[O-])c1ccc2c(c1)OCO2` (stereo not given), the TGI turned out to be 4.6 µM.

Regarding `COC1=CC(c2ccc[nH]2)=N/C1=C\c1[nH]c(C)c(C(=O)OC(C)C)c1C`, the GI50 is 0.0551 µM and the TGI amounted to 2.89 µM.

In the case of `CC/C=C\CCC/C=C1/C(=O)C=C[C@@H]1C/C=C\CCCC(=O)OC`, the GI50 is 2.79 µM and the TGI worked out at 7.51 µM.

Take `COC1=CC(=O)c2nc(-c3ccncc3)[nH]c2C1=O`: the GI50 was more than 100 µM and the TGI was more than 100 µM.

`Cn1cnc([N+](=O)[O-])c1Sc1nnc(-c2cccnc2)n1C` yielded a TGI of 21.1 µM.

With `NC(=O)c1cccc2cn(-c3ccc([C@@H]4CCCNC4)cc3)nc12`, the GI50 is 15.7 µM and the TGI came to 34.6 µM.

For `CCOc1ccc(NC(=O)C(=O)CC(=O)c2c[n+](=O)c3cc(C)c(C)cc3n2[O-])cc1`, the TGI was more than 100 µM.

`CN1C(=O)C(C)(C)C2(SC(C)(C)C2(C)C)N(C)C1=S` (stereo not given) returned a TGI of more than 100 µM.

Another assay relates to HT29 colon. Kind of assay: growth of human tumour cells (NCI), 48 h.
For the compound `CCOC(=O)[C@]1(OC(C)=O)C[C@H](OC(C)=O)[C@@H](C(F)COP(=O)(OCc2ccccc2)OCc2ccccc2)O1` (stereo not given in full), the GI50 was 28.2 µM and > 100 µM; the TGI was 83 µM and > 100 µM.

For the compound `O=C(O)c1ccccc1[Se][Se]c1ccccc1C(=O)O`, the TGI was more than 100 µM.

Regarding `CC[C@@]1(O)C[C@H](OC2CC(N(C)C)C(O)C(C)O2)c2c(O)c3c(c(O)c2[C@H]1OC1CC(N(C)C)C(O)C(C)O1)C(=O)c1cccc(O)c1C3=O` (stereo not given in full), the GI50 is less than 0.01 µM; the TGI was 0.353 µM and 0.109 µM.

With `Cc1ccc(N=Nc2ccc(N(CCC#N)CCC#N)cc2C)c(Br)c1`, the TGI was 27.4 µM.

Consider `CC(C)CCC[C@@H](C)[C@H]1CC[C@H]2[C@@H]3CC=C4C[C@@H](C(C(=O)O)C(=O)O)CC[C@]4(C)[C@H]3CC[C@]12C`, for which the GI50 is 0.224 µM and the TGI came out at 1.06 µM.

Compound `CC(C)C/C(CC(=O)CCC(=O)Nc1ccccc1[N+](=O)[O-])=N\NC(=O)c1cc2ccccc2cc1O` yielded a TGI of more than 100 µM.

`Nc1ccccc1SC(C[N+](=O)[O-])c1ccc2c(c1)OCO2` (stereo not given) yielded a TGI of 3.81 µM.

`COC1=CC(c2ccc[nH]2)=N/C1=C\c1[nH]c(C)c(C(=O)OC(C)C)c1C`: the GI50 was 0.0236 µM and the TGI was determined as 0.439 µM.

On to `CC/C=C\CCC/C=C1/C(=O)C=C[C@@H]1C/C=C\CCCC(=O)OC`, for which the GI50 is 2.14 µM and the TGI turned out to be 3.87 µM.

For the compound `COC1=CC(=O)c2nc(-c3ccncc3)[nH]c2C1=O`, the GI50 was more than 100 µM and the TGI was more than 100 µM.

For the compound `Cn1cnc([N+](=O)[O-])c1Sc1nnc(-c2cccnc2)n1C`, the TGI was 47.9 µM.

As to `NC(=O)c1cccc2cn(-c3ccc([C@@H]4CCCNC4)cc3)nc12`, the GI50 was 12.9 µM and the TGI is 32 µM.

For `CCOc1ccc(NC(=O)C(=O)CC(=O)c2c[n+](=O)c3cc(C)c(C)cc3n2[O-])cc1`, the TGI is more than 100 µM.

As for `CN1C(=O)C(C)(C)C2(SC(C)(C)C2(C)C)N(C)C1=S` (stereo not given), the TGI was more than 100 µM.

Another assay concerns K-562 leukemia. Kind of assay: growth of human tumour cells (NCI), 48 h.
`CCOC(=O)[C@]1(OC(C)=O)C[C@H](OC(C)=O)[C@@H](C(F)COP(=O)(OCc2ccccc2)OCc2ccccc2)O1` (stereo not given in full): the TGI was more than 100 µM.

Compound `O=C(O)c1ccccc1[Se][Se]c1ccccc1C(=O)O` showed a TGI of more than 100 µM.

On to `CC[C@@]1(O)C[C@H](OC2CC(N(C)C)C(O)C(C)O2)c2c(O)c3c(c(O)c2[C@H]1OC1CC(N(C)C)C(O)C(C)O1)C(=O)c1cccc(O)c1C3=O` (stereo not given in full), for which the GI50 was less than 0.01 µM.

In turn, `Cc1ccc(N=Nc2ccc(N(CCC#N)CCC#N)cc2C)c(Br)c1` returned a TGI of more than 100 µM.

Take `CC(C)CCC[C@@H](C)[C@H]1CC[C@H]2[C@@H]3CC=C4C[C@@H](C(C(=O)O)C(=O)O)CC[C@]4(C)[C@H]3CC[C@]12C`: the GI50 was 0.144 µM and the TGI worked out at 2 µM.

`CC(C)C/C(CC(=O)CCC(=O)Nc1ccccc1[N+](=O)[O-])=N\NC(=O)c1cc2ccccc2cc1O` yielded a TGI of more than 100 µM.

As to `Nc1ccccc1SC(C[N+](=O)[O-])c1ccc2c(c1)OCO2` (stereo not given), the TGI is 7 µM.

With `COC1=CC(c2ccc[nH]2)=N/C1=C\c1[nH]c(C)c(C(=O)OC(C)C)c1C`, the GI50 is 0.0674 µM and the TGI stood at 1.14 µM.

Consider `CC/C=C\CCC/C=C1/C(=O)C=C[C@@H]1C/C=C\CCCC(=O)OC`, for which the GI50 is 2.46 µM and the TGI worked out at 11.6 µM.

With `COC1=CC(=O)c2nc(-c3ccncc3)[nH]c2C1=O`, the GI50 is more than 100 µM and the TGI was more than 100 µM.

With `Cn1cnc([N+](=O)[O-])c1Sc1nnc(-c2cccnc2)n1C`, the TGI was 57.8 µM.

As for `NC(=O)c1cccc2cn(-c3ccc([C@@H]4CCCNC4)cc3)nc12`, the GI50 was 14.1 µM and the TGI came out at 36.8 µM.

Compound `CCOc1ccc(NC(=O)C(=O)CC(=O)c2c[n+](=O)c3cc(C)c(C)cc3n2[O-])cc1` displayed a TGI of more than 100 µM.

`CN1C(=O)C(C)(C)C2(SC(C)(C)C2(C)C)N(C)C1=S` (stereo not given): the TGI was more than 100 µM.

The subject of the next assay is MALME-3M melanoma. Kind of assay: growth of human tumour cells (NCI), 48 h.
Turning to `CCOC(=O)[C@]1(OC(C)=O)C[C@H](OC(C)=O)[C@@H](C(F)COP(=O)(OCc2ccccc2)OCc2ccccc2)O1` (stereo not given in full), the GI50 was 13.9 µM and > 100 µM; the TGI is 33.8 µM and > 100 µM.

As for `O=C(O)c1ccccc1[Se][Se]c1ccccc1C(=O)O`, the TGI is more than 100 µM.

Regarding `CC[C@@]1(O)C[C@H](OC2CC(N(C)C)C(O)C(C)O2)c2c(O)c3c(c(O)c2[C@H]1OC1CC(N(C)C)C(O)C(C)O1)C(=O)c1cccc(O)c1C3=O` (stereo not given in full), the GI50 was less than 0.01 µM.

Compound `Cc1ccc(N=Nc2ccc(N(CCC#N)CCC#N)cc2C)c(Br)c1` registered a TGI of more than 100 µM.

As to `CC(C)CCC[C@@H](C)[C@H]1CC[C@H]2[C@@H]3CC=C4C[C@@H](C(C(=O)O)C(=O)O)CC[C@]4(C)[C@H]3CC[C@]12C`, the GI50 is 0.134 µM and the TGI was determined as 0.502 µM.

The compound `CC(C)C/C(CC(=O)CCC(=O)Nc1ccccc1[N+](=O)[O-])=N\NC(=O)c1cc2ccccc2cc1O` came in with a TGI of more than 100 µM.

Compound `Nc1ccccc1SC(C[N+](=O)[O-])c1ccc2c(c1)OCO2` (stereo not given) displayed a TGI of 29.8 µM.

Take `COC1=CC(c2ccc[nH]2)=N/C1=C\c1[nH]c(C)c(C(=O)OC(C)C)c1C`: the GI50 was 0.456 µM and the TGI was found to be 2.19 µM.

Regarding `CC/C=C\CCC/C=C1/C(=O)C=C[C@@H]1C/C=C\CCCC(=O)OC`, the GI50 was 4.76 µM and the TGI was 16.6 µM.

Regarding `COC1=CC(=O)c2nc(-c3ccncc3)[nH]c2C1=O`, the GI50 was more than 100 µM and the TGI was more than 100 µM.

For `Cn1cnc([N+](=O)[O-])c1Sc1nnc(-c2cccnc2)n1C`, the TGI stood at 33.2 µM.

`NC(=O)c1cccc2cn(-c3ccc([C@@H]4CCCNC4)cc3)nc12`: the GI50 is 15.2 µM and the TGI was 30.5 µM.

`CCOc1ccc(NC(=O)C(=O)CC(=O)c2c[n+](=O)c3cc(C)c(C)cc3n2[O-])cc1` registered a TGI of more than 100 µM.
